Laboratory results published in patent publication US4235905A, “1H-Pyrimido[4,5-c]-1,2-diazepines” (Burroughs Wellcome Co., priority 1977, dated 1980).
Where two headings read alike, the source gives them in different places.

Tests used:
[1] = test system: Eimeria tenella (Weybridge); assay: Anti-coccidial activity in vitro, chick embryo liver cell cultures with Eimeria tenella sporozites; assay type: cell-based; conditions: for Activity, Alone: compound alone; for Activity, With DV/SQX: with sulphaquinoxaline (0.01 μg/ml) and diaveridine (0.031 μg/ml); for minimal effective concentration: Eimeria tenella, read-out: minimum active anti-coccidial amount
Method: The anti-coccidial activity of compounds of formula (III) alone and in combination with a mixture of diaveridine (DV) and sulphaquinoxaline (SQX) in vitro was tested according to the following procedure.
Using standard test procedures employing primary explant cultures of chick embryo liver cells and a suspension of Eimeria tenella (Weybridge) sporozites the activity of the compounds was determined at various concentrations. In the above test, each test compound was used either alone or in combination with sulphaquinoxaline (0.01 μg/ml) and diaveridine (0.031 μg/ml). It should be noted that the minimum active anti-coccidial amounts of sulphaquinoxaline and diaveridine are 0.024 μg/ml and 0.098 μg/ml respectively.
The following results were obtained wherein activity is expressed as follows: […]

[2] = LD50 in mice; conditions: mouse, in vivo, ip
Method: By standard techniques the LD50 values of the following compounds of formula (I) were determined in mice.

[3] = test system: Staphylococcus aureus; assay: Antibacterial activity of trimethoprim and sulphamethoxazole alone and in combination with compounds of formula (II) (activity index); assay type: cell-based; conditions: compound of formula (II) at 50 μg/ml, viable counts after 24 hours incubation of 10^6 organisms per ml; for activity index, SMX: in combination with sulphamethoxazole (SMX); for activity index, TMP: in combination with trimethoprim (TMP)
Method: The antibacterial activity against Staphylococcus aureus of trimethoprim (TMP) and sulphamethoxazole (SMX) alone and in combination with compounds of formula (II) were compared.
The results shown in the table are expressed as an activity index which is: [formula] the effect of the compounds being measured by viable counts after 24 hours incubation of 10^6 organisms per ml.
In this test, the compounds of formula (II) were present at 50 μg/ml.
An activity index ≥2 is indicative of substantial potentiation: […]

[4] = test system: Weybridge strain of Eimeria tenella; assay: Anti-coccidial activity in vivo in chicks, caecal lesion score; conditions: compound 200 ppm in diet with DV 20 ppm and SQX 20 ppm, sixth day after infection, scale 0-3, dead = 4
Method: Compounds of formula (III) were tested for anti-coccidial activity in vivo in combination with diaveridine (DV) and sulphaquinoxaline (SQX), each at 20 ppm, according to the following procedure. Groups of five, one week old chicks were each injected orally with 6,000 sporulated o cysts of the Weybridge strain of Eimeria tenella. Drugs were administered in LD 5 chick mash deficient in Vitamin K, beginning on the day of infection and continuing for 7 days. On the sixth day after infection, caecal lesions of surviving chicks were scored on a scale of 0, 1, 2 or 3 and any dead chicks were scored as 4.

With `CN1N=C(c2ccccc2)C=C(c2ccccc2)c2c1nc(N)[nH]c2=O` [Example 1, 8-Amino-3,5-diphenyl-1-methyl-1H-pyrimido{4,5-c}-1,2-diazepin-6(7H)-one] the “Activity, Alone” value ([1]; concentration 25 μg/ml) was 4 (1-25% parasite development) and the “Activity, With DV/SQX” value ([1]; concentration 25 μg/ml) was 4 (1-25% parasite development).
For `CC1=CC(C)=NN(C)c2nc(N)[nH]c(=O)c21` [Example 2, 8-Amino-1,3,5-trimethyl-1H-pyrimido{4,5-c}-1,2-diazepin-6(7H)-one], the LD50 [2] was ~500 mg/kg.
In the case of `COC(=O)C1=NN(C)c2nc(N)[nH]c(=O)c2C(c2cccc(O)c2)=C1` [Example 3, 8-Amino-3-carbomethoxy-5-(3-hydroxyphenyl)-1-methyl-1H-pyrimido{4,5-c}-1,2-diazepin-6(7H)-one], the “activity index, SMX” value [3] is reported as 2.7 and the “activity index, TMP” value [3] is reported as 0.9.
For `CCOC(=O)C1=NN(C)c2nc(N)[nH]c(=O)c2C(c2ccccc2)=C1` [Example 5, 8-Amino-3-carbethoxy-1-methyl-5-phenyl-1H-pyrimido-{4,5-c}-1,2-diazepin-6(7H)-one], the “activity index, SMX” value [3] was > 2.8 and the “activity index, TMP” value [3] was 2.0.
In the case of `COC(=O)C1=NN(C)c2nc(N)[nH]c(=O)c2C(c2cc(OC)c(OC)c(OC)c2)=C1` [Example 6, 8-Amino-3-carbomethoxy-1-methyl-5-(3,4,5-trimethoxyphenyl)-1H-pyrimido{4,5-c}-1,2-diazepin-6(7H)-one], the Lesion score [4] is reported as 0.6, the “Activity, Alone” value ([1]; concentration 1.56 μg/ml) is reported as 2 (51-75% parasite development) and the “Activity, Alone” value ([1]; concentration 6.25 μg/ml) is reported as 3 (26-50% parasite development). The “Activity, Alone” value ([1]; concentration 25 μg/ml) was 3 (26-50% parasite development), the “Activity, Alone” value ([1]; concentration 100 μg/ml) was 3 (26-50% parasite development) and the “Activity, With DV/SQX” value ([1]; concentration 1.56 μg/ml) was 3 (26-50% parasite development). The “Activity, With DV/SQX” value ([1]; concentration 6.25 μg/ml) was 3 (26-50% parasite development), the “Activity, With DV/SQX” value ([1]; concentration 25 μg/ml) was 4 (1-25% parasite development) and the “Activity, With DV/SQX” value ([1]; concentration 100 μg/ml) was 5.
With `CCOC(=O)C1=NN(C)c2nc(N)[nH]c(=O)c2C(c2ccc(OC)cc2OC)=C1` [Example 7, 8-Amino-3-carbethoxy-1-methyl-5-(2,4-dimethoxyphenyl)1H-pyrimido{4,5-c}-1,2-diazepin-6(7H)-one] the Lesion score [4] was 1.2, the “Activity, Alone” value ([1]; concentration 1.56 μg/ml) was 0 (95-100% parasite development) and the “Activity, Alone” value ([1]; concentration 6.25 μg/ml) was 2 (51-75% parasite development). The “Activity, Alone” value ([1]; concentration 25 μg/ml) was 4 (1-25% parasite development), the “Activity, Alone” value ([1]; concentration 100 μg/ml) was 4 (1-25% parasite development) and the “Activity, With DV/SQX” value ([1]; concentration 1.56 μg/ml) was 2 (51-75% parasite development). The “Activity, With DV/SQX” value ([1]; concentration 6.25 μg/ml) was 3 (26-50% parasite development), the “Activity, With DV/SQX” value ([1]; concentration 25 μg/ml) was 5 and the “Activity, With DV/SQX” value ([1]; concentration 100 μg/ml) was 5.
For `COc1ccc(Cc2cnc(N)nc2N)cc1OC` [diaveridine, reference compound], the minimal effective concentration [1] was 0.098 µg/mL.
In the case of `COC(=O)C1=NN(C)c2nc(N)[nH]c(=O)c2C(c2cc(OC)c(OC)c(OC)c2)=C1` [drawing 31], the LD50 [2] is reported as > 500 mg/kg.
In the case of `Nc1ccc(S(=O)(=O)Nc2cnc3ccccc3n2)cc1` [sulphaquinoxaline, reference compound], the minimal effective concentration ([1]; in vitro, alone) is reported as 0.024 µg/mL.
